{"source": "ChEMBL document CHEMBL1135942", "about": "“Synthesis of 5,6-dihydro-11H-benzo[5,6]-cyclohepta[1,2-b]pyridin-11-ylidene)-1-piperidine-N-cyanoguanidine derivatives as inhibitors of ras farnesyl protein transferase” (Bioorg Med Chem Lett, 2002)", "biological_target": "Protein farnesyltransferase (Homo sapiens, UniProt P49354+P49356)", "experiment": "FPT inhibitory activity was determined by the ability to inhibit the transfer of [3H]farnesyl from farnesyl pyrophosphate to H-ras-CLVS", "type": "protein-complex assay", "data": [{"smiles": "N#CN=C(NCC1CCNCC1)N1CCC(=C2c3ccc(Cl)cc3CCc3cc(Br)cnc32)CC1", "values": [{"measurement": "IC50", "value": 18, "unit": "nM"}]}, {"smiles": "N#CN=C(Nc1ccc(C#N)cc1)N1CCC(=C2c3ccc(Cl)cc3CCc3cc(Br)cnc32)CC1", "values": [{"measurement": "IC50", "value": 32, "unit": "nM"}]}, {"smiles": "N#CN=C(N)N1CCC(=C2c3ccc(Cl)cc3CCc3cc(Br)cnc32)CC1", "values": [{"measurement": "IC50", "value": 2600, "unit": "nM"}]}, {"smiles": "CC(C)NC(=NC#N)N1CCC(=C2c3ccc(Cl)cc3CCc3cc(Br)cnc32)CC1", "values": [{"measurement": "IC50", "value": 124, "unit": "nM"}]}, {"smiles": "O=C(CN1CCC(=C2c3ccc(Cl)cc3CCc3cccnc32)CC1)c1ccccc1", "values": [{"measurement": "IC50", "value": 15800, "unit": "nM"}]}, {"smiles": "O=C(Cc1ccc[n+]([O-])c1)N1CCC([C@H]2c3ncc(Br)cc3CCc3cc(Cl)cc(Br)c32)CC1", "values": [{"measurement": "IC50", "value": 8.2, "unit": "nM"}]}, {"smiles": "CCOC(=O)N1CCC(NC(=NC#N)N2CCC(=C3c4ccc(Cl)cc4CCc4cc(Br)cnc43)CC2)CC1", "values": [{"measurement": "IC50", "value": 42, "unit": "nM"}]}, {"smiles": "N#CN=C(Nc1ccc2c(c1)COCO2)N1CCC(=C2c3ccc(Cl)cc3CCc3cc(Br)cnc32)CC1", "values": [{"measurement": "IC50", "value": 15, "unit": "nM"}]}, {"smiles": "CC(C)c1ccc(N/C(=N\\C#N)N2CCC(=C3c4ccc(Cl)cc4CCc4cc(Br)cnc43)CC2)cc1", "values": [{"measurement": "IC50", "value": 150, "unit": "nM"}]}, {"smiles": "N#CN=C(NCC1CCCCC1)N1CCC(=C2c3ccc(Cl)cc3CCc3cc(Br)cnc32)CC1", "values": [{"measurement": "IC50", "value": 199, "unit": "nM"}]}, {"smiles": "N#CN=C(NC1CC1)N1CCC(=C2c3ccc(Cl)cc3CCc3cc(Br)cnc32)CC1", "values": [{"measurement": "IC50", "value": 155, "unit": "nM"}]}, {"smiles": "N#CN=C(NCc1cccnc1)N1CCC(=C2c3ccc(Cl)cc3CCc3cc(Br)cnc32)CC1", "values": [{"measurement": "IC50", "value": 15, "unit": "nM"}]}, {"smiles": "N#CN/C(=N/CCOCCO)N1CCC(=C2c3ccc(Cl)cc3CCc3cc(Br)cnc32)CC1", "values": [{"measurement": "IC50", "value": 84, "unit": "nM"}]}, {"smiles": "N#C/N=C(\\Nc1ccc([N+](=O)[O-])cc1)N1CCC(=C2c3ccc(Cl)cc3CCc3cc(Br)cnc32)CC1", "values": [{"measurement": "IC50", "value": 62, "unit": "nM"}]}, {"smiles": "N#CN=C(NCc1ccccc1)N1CCC(=C2c3ccc(Cl)cc3CCc3cc(Br)cnc32)CC1", "values": [{"measurement": "IC50", "value": 230, "unit": "nM"}]}, {"smiles": "N#CN/C(=N/Cc1ccccn1)N1CCC(=C2c3ccc(Cl)cc3CCc3cc(Br)cnc32)CC1", "values": [{"measurement": "IC50", "value": 29, "unit": "nM"}]}, {"smiles": "N#CN/C(=N/CCc1ccncc1)N1CCC(=C2c3ccc(Cl)cc3CCc3cc(Br)cnc32)CC1", "values": [{"measurement": "IC50", "value": 30, "unit": "nM"}]}, {"smiles": "N#CN=C(Nc1ccccc1)N1CCC(=C2c3ccc(Cl)cc3CCc3cc(Br)cnc32)CC1", "values": [{"measurement": "IC50", "value": 116, "unit": "nM"}]}, {"smiles": "N#C/N=C(\\Nc1ccc(OC(F)(F)F)cc1)N1CCC(=C2c3ccc(Cl)cc3CCc3cc(Br)cnc32)CC1", "values": [{"measurement": "IC50", "value": 320, "unit": "nM"}]}, {"smiles": "COc1ccc(C/N=C(/NC#N)N2CCC(=C3c4ccc(Cl)cc4CCc4cc(Br)cnc43)CC2)cc1", "values": [{"measurement": "IC50", "value": 310, "unit": "nM"}]}, {"smiles": "N#CN=C(Nc1ccc2c(c1)OCO2)N1CCC(=C2c3ccc(Cl)cc3CCc3cc(Br)cnc32)CC1", "values": [{"measurement": "IC50", "value": 38, "unit": "nM"}]}, {"smiles": "N#CN/C(=N/CCO)N1CCC(=C2c3ccc(Cl)cc3CCc3cc(Br)cnc32)CC1", "values": [{"measurement": "IC50", "value": 170, "unit": "nM"}]}, {"smiles": "N#CN/C(=N/CCCn1ccnc1)N1CCC(=C2c3ccc(Cl)cc3CCc3cc(Br)cnc32)CC1", "values": [{"measurement": "IC50", "value": 35, "unit": "nM"}]}, {"smiles": "N#CN=C(Nc1ccc(F)cc1)N1CCC(=C2c3ccc(Cl)cc3CCc3cc(Br)cnc32)CC1", "values": [{"measurement": "IC50", "value": 38, "unit": "nM"}]}, {"smiles": "N#CN=C(NCCc1cnc[nH]1)N1CCC(=C2c3ccc(Cl)cc3CCc3cc(Br)cnc32)CC1", "values": [{"measurement": "IC50", "value": 58, "unit": "nM"}]}, {"smiles": "N#CN/C(=N/Cc1ccc2c(c1)OCO2)N1CCC(=C2c3ccc(Cl)cc3CCc3cc(Br)cnc32)CC1", "values": [{"measurement": "IC50", "value": 240, "unit": "nM"}]}, {"smiles": "CCCCNC(=NC#N)N1CCC(=C2c3ccc(Cl)cc3CCc3cc(Br)cnc32)CC1", "values": [{"measurement": "IC50", "value": 105, "unit": "nM"}]}, {"smiles": "N#CN=C(NCc1ccc[n+]([O-])c1)N1CCC(=C2c3ccc(Cl)cc3CCc3cc(Br)cnc32)CC1", "values": [{"measurement": "IC50", "value": 12, "unit": "nM"}]}, {"smiles": "N#CN/C(=N/Cc1ccc[n+]([O-])c1)N1CCC([C@H]2c3ncc(Br)cc3CCc3cc(Cl)cc(Br)c32)CC1", "values": [{"measurement": "IC50", "value": 1.7, "unit": "nM"}]}, {"smiles": "N#CN/C(=N/Cc1cc[n+]([O-])cc1)N1CCC(=C2c3ccc(Cl)cc3CCc3cc(Br)cnc32)CC1", "values": [{"measurement": "IC50", "value": 6, "unit": "nM"}]}, {"smiles": "N#CN/C(=N/c1ccncc1)N1CCC(=C2c3ccc(Cl)cc3CCc3cc(Br)cnc32)CC1", "values": [{"measurement": "IC50", "value": "< 110", "unit": "nM"}]}, {"smiles": "CN(C)CCCC/N=C(/NC#N)N1CCC(=C2c3ccc(Cl)cc3CCc3cc(Br)cnc32)CC1", "values": [{"measurement": "IC50", "value": 74, "unit": "nM"}]}, {"smiles": "N#CN/C(=N/c1ccccc1)N1CCC(=C2c3ccc(Cl)cc3CCc3cccnc32)CC1", "values": [{"measurement": "IC50", "value": 86, "unit": "nM"}]}, {"smiles": "CS(=O)(=O)c1ccc(N/C(=N\\C#N)N2CCC(=C3c4ccc(Cl)cc4CCc4cc(Br)cnc43)CC2)cc1", "values": [{"measurement": "IC50", "value": 82, "unit": "nM"}]}, {"smiles": "CN(C)c1ccc(CNC(=NC#N)N2CCC(=C3c4ccc(Cl)cc4CCc4cc(Br)cnc43)CC2)cc1", "values": [{"measurement": "IC50", "value": 100, "unit": "nM"}]}, {"smiles": "N#CN/C(=N/CC1CCN(C(N)=O)CC1)N1CCC(=C2c3ccc(Cl)cc3CCc3cc(Br)cnc32)CC1", "values": [{"measurement": "IC50", "value": 6, "unit": "nM"}]}, {"smiles": "N#CN/C(=N/C1CCCCC1)N1CCC(=C2c3ccc(Cl)cc3CCc3cc(Br)cnc32)CC1", "values": [{"measurement": "IC50", "value": 20, "unit": "nM"}]}]}
